For the assay, the system named is heart rhythm of a patient. As to the kind of experiment: Clinical data: oral levosimendan in a patient with wandering atrial pacemaker, first degree AV block, junctional rhythm. The assay is classed as in vivo, human. How it is done: The underlying heart rhythm of a patient on intravenous milrinone was wandering atrial pacemaker with a first degree AV block alternating with a junctional rhythm and sinus rhythm. The overall heart rate was around 70 bpm. Because of failure to wean the milrinone the patient was entered into oral levosimendan first at 1 mg followed by 2 mg and subsequently by 4 mg qd. […] Their levosimendan dose was reduced to 2 mg and maintained at that dose during the taper of intravenous milrinone. […] Milrinone was tapered off and the patient could be transferred out of the intensive care unit. The patient's dose of levosimendan was continued at 1 mg three times a day.

Each structure is given as a SMILES string.

In the case of `CC1CC(=O)NN=C1c1ccc(NN=C(C#N)C#N)cc1` (single isomer, unassigned; (-)) [levosimendan, (−)-[[4-(1,4,5,6-tetrahydro-4-methyl-6-oxo-3-pyridazinyl)phenyl]hydrazono]propanedinitrile], the cardiac rhythm entry (levosimendan 2 mg during taper of intravenous milrinone) is “regularize with a vast majority of the beats being sinus node in origin”. Moreover, the overall heart rate (levosimendan dose reduced to 2 mg, maintained during taper of intravenous milrinone) is 80-85 bpm. Also, the heart rate entry (oral levosimendan 1 mg, then 2 mg, then 4 mg qd, patient on intravenous milrinone, baseline around 70 bpm) is recorded as “over 90 bpm”.

Source of the values: patent US6911209B1, “Method of treating sick sinus syndrome with levosimendan” (Orion Corporation, priority 1999, dated 2005).
